The results in this text go back to PMC6269873, “Substituted 3-Benzylcoumarins as Allosteric MEK1 Inhibitors: Design, Synthesis and Biological Evaluation as Antiviral Agents” (Molecules, 2013).

The assay addresses phosphorylated MEK1 (Homo sapiens, UniProt Q02750). In words: MEK1 binding assay (HTRF, tracer displacement). The conditions noted are these: for inhibition at 2 µM: read-out: % binding (2 µM); for inhibition at 20 µM: read-out: % binding (20 µM). The method, then:
The homogeneous time resolved fluorescence (HTRF) assay was performed on a Proxiplate-384 F plus solid back plate (Perkin Elmer, Waltham, MA. USA) with 5 nM GST tagged phosphorylated MEK1 (GST-MEK1), 2 nM europium-labeled anti-GST antibody (Eu-anti-GST), 20 nM kinase tracer 236 and test compound at a variety of concentrations. In the reaction mixture, GST-MEK1 forms a complex with the Eu-anti-GST and the tracer. Excitation of europium (the donor) using a 340-nm excitation filter results in energy transfer to the fluorophore of the tracer. This energy transfer is detected by an increase in the fluorescence emission of the tracer at 665 nm and a decrease in the fluorescence emission of europium at 615 nm. The FRET ratio was calculated by dividing the emission signal at 665 nm by the emission signal at 615 nm. A competitor compound such as a MEK inhibitor replaces the tracer from the complex and decreases the FRET ratio accordingly. The plate was incubated in dark at room temperature for 30 min before measuring the fluorescent emission of each well at 665 and 615 nm using a 340-nm excitation filter, 100-µs delay time, and 200-µs integration time, on a PHERAStar plate reader (BMG Labtech, Durham, NC, USA). […] Data shown as %Inhibition normalized to AZD6244 at 100 µM.

phosphorylated MEK1, sequence (Q02750 whole entry): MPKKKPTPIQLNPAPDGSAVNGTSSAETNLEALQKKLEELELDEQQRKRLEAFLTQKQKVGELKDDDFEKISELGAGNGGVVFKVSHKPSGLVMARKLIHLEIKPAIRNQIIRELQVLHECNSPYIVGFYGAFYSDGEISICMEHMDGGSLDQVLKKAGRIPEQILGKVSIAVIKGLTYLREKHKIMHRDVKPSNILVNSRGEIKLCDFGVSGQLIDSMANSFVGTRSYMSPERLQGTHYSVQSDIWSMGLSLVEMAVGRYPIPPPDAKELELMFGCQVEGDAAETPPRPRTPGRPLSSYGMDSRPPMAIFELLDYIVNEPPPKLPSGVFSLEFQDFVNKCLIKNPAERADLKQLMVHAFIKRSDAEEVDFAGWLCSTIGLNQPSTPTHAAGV

Take `Cn1cnc2c(F)c(Nc3ccc(Br)cc3Cl)c(C(=O)NOCCO)cc21` [AZD6244, reference compound]: the inhibition at 100 µM is 100%.
Regarding `Cc1c(Cc2ccccc2)c(=O)oc2cc(O)ccc12` [Compound 4b, 3-Benzyl-7-hydroxy-4-methyl-2H-chromen-2-one], the inhibition at 2 µM is -0.81% and the inhibition at 20 µM is -6.03%.
In the same order, the values of `Cc1c(Cc2ccccc2)c(=O)oc2cc(O)c(Cl)cc12` [Compound 4c, 3-Benzyl-6-chloro-7-hydroxy-4-methyl-2H-chromen-2-one] are 15.8% and 5.1%.
In the case of `CN(C)C(=O)Oc1ccc2cc(Cc3ccccc3)c(=O)oc2c1` [Compound 12, 3-benzyl-7-N,N-dimethylcarbamoyloxyl-2H-chromen-2-one], the “binding affinity (in words)” value is “disappearance of affinity”, the inhibition at 2 µM worked out at 31.6% and the inhibition at 20 µM was 25.6%.
As to `Cc1c(Cc2ccccc2)c(=O)oc2cc(OS(=O)(=O)c3ccccc3)ccc12` [Compound 69, 3-Benzyl-4-methyl-2-oxo-2H-chromen-7-yl benzenesulfonate], the inhibition at 2 µM is -11.3% and the inhibition at 20 µM was determined as 2.32%.
In the same order, the values of `Cc1c(Cc2ccccc2)c(=O)oc2cc(OS(=O)(=O)c3ccccc3)c(Cl)cc12` [Compound 70, 3-Benzyl-6-chloro-4-methyl-2-oxo-2H-chromen-7-yl benzenesulfonate] are 29.9% and 24.5%.
`CCc1c(Cc2ccccc2)c(=O)oc2cc(OS(=O)(=O)c3ccccc3)ccc12` [Compound 71, 3-Benzyl-4-ethyl-2-oxo-2H-chromen-7-yl benzenesulfonate]: the inhibition at 2 µM was determined as 31.1% and the inhibition at 20 µM is -2.35%.
As to `CCCc1c(Cc2ccccc2)c(=O)oc2cc(OS(=O)(=O)c3ccccc3)ccc12` [Compound 72, 3-Benzyl-2-oxo-4-propyl-2H-chromen-7-yl benzenesulfonate], the inhibition at 2 µM was 26% and the inhibition at 20 µM turned out to be 14%.
For the compound `CCc1c(Cc2ccc(F)cc2)c(=O)oc2cc(OS(=O)(=O)c3ccccc3)ccc12` [Compound 73, 4-Ethyl-3-(4-fluorobenzyl)-2-oxo-2H-chromen-7-yl benzenesulfonate], the “binding affinity (in words)” value is “inactive”, the inhibition at 2 µM stood at 16.6% and the inhibition at 20 µM worked out at 7.4%.
As for `Cc1c(Cc2ccc(F)cc2)c(=O)oc2cc(OS(=O)(=O)c3ccccc3)ccc12` [Compound 74, 3-(4-Fluorobenzyl)-4-methyl-2-oxo-2H-chromen-7-yl benzenesulfonate], the inhibition at 2 µM was found to be 21.4% and the inhibition at 20 µM worked out at 17%.
As for `CCCc1c(Cc2ccc(F)cc2)c(=O)oc2cc(OS(=O)(=O)c3ccccc3)ccc12` [Compound 75, 3-(4-Fluorobenzyl)-2-oxo-4-propyl-2H-chromen-7-yl benzenesulfonate], the inhibition at 2 µM came out at 21.6% and the inhibition at 20 µM was 13.8%.
In the same order, the values of `CCc1c(Cc2ccccc2)c(=O)oc2cc(OS(=O)(=O)c3ccc(C)cc3)ccc12` [Compound 78, 3-Benzyl-4-ethyl-2-oxo-2H-chromen-7-yl 4-methylbenzenesulfonate] are 33.2% and 4.76%.
In the same order, the values of `CCCc1c(Cc2ccccc2)c(=O)oc2cc(OS(=O)(=O)c3ccc(C)cc3)ccc12` [Compound 79, 3-Benzyl-2-oxo-4-propyl-2H-chromen-7-yl 4-methylbenzenesulfonate] are 24.6% and 11.7%.
Consider `CCc1c(Cc2ccc(F)cc2)c(=O)oc2cc(OS(=O)(=O)c3ccc(C)cc3)ccc12` [Compound 80, 4-Ethyl-3-(4-fluorobenzyl)-2-oxo-2H-chromen-7-yl 4-methylbenzenesulfonate], for which the “binding affinity (in words)” value is “inactive”, the inhibition at 2 µM stood at 33.1% and the inhibition at 20 µM is 16.5%.
